Patent publication US20190134000A1, “COMPOUNDS TO PROMOTE NORMAL PROCESSING OF APP” (Buck Institute for Research on Aging, priority 2016, published 2019)
Values after ≈ are worked out from the molar mass of the structure shown. “Also recorded” adds a separate entry of the source. Read-outs that look alike come from different tables or passages of the source.

Experiments:
B254 mice = test: C41 lead confirmation in B254 mice; assay type: in vivo; conditions: 4 weeks oral 4 mkd
Source text: FIG. 15 illustrates the result of C41 lead confirmation in B254 mice. Panel A: Novel Location Recognition; Panel B: Novel Object Recognition; Panel C: sAPPα; Panel D: Aβ40; Panel E: Aβ42; Panel F: p-tau/tau.

sAPPα in SH-SY5Y cells = test: Primary screen, effect on sAPPα in SH-SY5Y cells (AlphaLISA); assay type: cell-based, human; conditions: ↑ increase
Source text: Compound C41 was initially identified by screening a library of compounds in a series of steps. First compounds were screened in a primary screen to determine the effect on sAPPα in SH-SYSY cells (see, e.g., FIG. 4). Compounds that elicited an increase in sAPPα of at least 10% were subjected to a secondary screen in CHO-7W cells for their effect on sAPPα and Aβ (see, e.g., FIG. 5).

CYP2C19 = CYP2C19 (Homo sapiens, UniProt P33261); test: CYP inhibition screen CYP2C19; assay type: in vitro ADME
CYP2C19, sequence (P33261 whole entry): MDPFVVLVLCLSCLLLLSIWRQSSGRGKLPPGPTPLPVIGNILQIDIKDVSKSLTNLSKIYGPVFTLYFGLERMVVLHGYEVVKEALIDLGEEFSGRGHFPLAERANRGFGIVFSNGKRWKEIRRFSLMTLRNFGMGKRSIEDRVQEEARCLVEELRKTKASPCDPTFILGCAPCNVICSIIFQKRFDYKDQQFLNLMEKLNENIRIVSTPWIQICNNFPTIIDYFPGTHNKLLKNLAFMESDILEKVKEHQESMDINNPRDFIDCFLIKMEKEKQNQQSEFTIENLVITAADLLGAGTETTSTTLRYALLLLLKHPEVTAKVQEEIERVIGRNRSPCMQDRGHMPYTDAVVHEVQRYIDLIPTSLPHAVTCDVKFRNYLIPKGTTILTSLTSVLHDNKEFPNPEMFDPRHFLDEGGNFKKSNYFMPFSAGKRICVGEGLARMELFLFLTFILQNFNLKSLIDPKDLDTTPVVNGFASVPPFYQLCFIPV

hERG receptor = hERG receptor (Homo sapiens, UniProt Q12809); assay type: binding
hERG receptor, sequence (Q12809 whole entry): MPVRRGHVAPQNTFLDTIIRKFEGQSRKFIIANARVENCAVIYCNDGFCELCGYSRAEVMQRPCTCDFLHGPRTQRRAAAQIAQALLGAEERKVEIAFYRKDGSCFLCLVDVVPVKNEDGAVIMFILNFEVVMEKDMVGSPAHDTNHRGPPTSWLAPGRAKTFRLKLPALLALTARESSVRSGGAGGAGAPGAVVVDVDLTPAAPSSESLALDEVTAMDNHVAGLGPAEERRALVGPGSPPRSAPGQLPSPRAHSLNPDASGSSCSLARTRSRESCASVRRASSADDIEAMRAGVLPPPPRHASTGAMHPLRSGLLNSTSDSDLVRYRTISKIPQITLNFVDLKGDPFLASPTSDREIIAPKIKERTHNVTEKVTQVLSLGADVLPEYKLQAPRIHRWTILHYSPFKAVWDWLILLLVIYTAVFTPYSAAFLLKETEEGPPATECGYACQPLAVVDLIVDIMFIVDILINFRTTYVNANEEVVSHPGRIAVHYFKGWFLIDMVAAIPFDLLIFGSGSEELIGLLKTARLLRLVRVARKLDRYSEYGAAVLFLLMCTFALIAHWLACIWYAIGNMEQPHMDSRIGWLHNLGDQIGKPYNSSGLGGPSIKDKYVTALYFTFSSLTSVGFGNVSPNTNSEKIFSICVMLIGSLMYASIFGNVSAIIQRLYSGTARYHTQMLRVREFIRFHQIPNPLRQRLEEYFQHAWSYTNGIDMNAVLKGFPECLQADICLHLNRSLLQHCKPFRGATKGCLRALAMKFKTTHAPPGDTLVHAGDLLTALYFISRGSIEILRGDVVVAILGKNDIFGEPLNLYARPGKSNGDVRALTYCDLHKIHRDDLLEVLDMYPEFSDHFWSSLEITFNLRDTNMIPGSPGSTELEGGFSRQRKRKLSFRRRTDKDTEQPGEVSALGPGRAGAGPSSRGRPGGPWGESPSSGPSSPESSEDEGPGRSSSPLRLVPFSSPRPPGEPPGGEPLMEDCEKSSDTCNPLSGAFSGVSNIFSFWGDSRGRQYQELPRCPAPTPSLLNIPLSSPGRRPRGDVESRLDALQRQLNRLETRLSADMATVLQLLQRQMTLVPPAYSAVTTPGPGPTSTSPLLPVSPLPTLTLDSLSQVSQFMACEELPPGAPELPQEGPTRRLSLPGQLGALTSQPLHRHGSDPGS

5-HT3 = molecular target: T1, 5-HT3 (Homo sapiens, UniProt P46098); test: Target binding 5-HT3
T1 sequence (P46098 24-478): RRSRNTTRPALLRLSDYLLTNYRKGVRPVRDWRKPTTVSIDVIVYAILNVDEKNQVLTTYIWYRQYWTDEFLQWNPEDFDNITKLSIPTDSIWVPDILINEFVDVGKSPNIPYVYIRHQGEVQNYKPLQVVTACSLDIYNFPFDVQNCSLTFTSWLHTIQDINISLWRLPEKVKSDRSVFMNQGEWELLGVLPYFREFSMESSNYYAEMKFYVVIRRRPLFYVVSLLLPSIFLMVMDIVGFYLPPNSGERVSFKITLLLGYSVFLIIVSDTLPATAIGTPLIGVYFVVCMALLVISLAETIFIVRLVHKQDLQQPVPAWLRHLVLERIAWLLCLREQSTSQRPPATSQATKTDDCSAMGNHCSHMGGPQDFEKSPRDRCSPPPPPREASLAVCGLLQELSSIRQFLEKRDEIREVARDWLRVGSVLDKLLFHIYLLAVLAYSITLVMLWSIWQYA

CYP1A2 = molecular target: T2, CYP1A2 (Homo sapiens, UniProt P05177); test: CYP inhibition screen CYP1A2; assay type: in vitro ADME
T2 sequence (P05177 1-516): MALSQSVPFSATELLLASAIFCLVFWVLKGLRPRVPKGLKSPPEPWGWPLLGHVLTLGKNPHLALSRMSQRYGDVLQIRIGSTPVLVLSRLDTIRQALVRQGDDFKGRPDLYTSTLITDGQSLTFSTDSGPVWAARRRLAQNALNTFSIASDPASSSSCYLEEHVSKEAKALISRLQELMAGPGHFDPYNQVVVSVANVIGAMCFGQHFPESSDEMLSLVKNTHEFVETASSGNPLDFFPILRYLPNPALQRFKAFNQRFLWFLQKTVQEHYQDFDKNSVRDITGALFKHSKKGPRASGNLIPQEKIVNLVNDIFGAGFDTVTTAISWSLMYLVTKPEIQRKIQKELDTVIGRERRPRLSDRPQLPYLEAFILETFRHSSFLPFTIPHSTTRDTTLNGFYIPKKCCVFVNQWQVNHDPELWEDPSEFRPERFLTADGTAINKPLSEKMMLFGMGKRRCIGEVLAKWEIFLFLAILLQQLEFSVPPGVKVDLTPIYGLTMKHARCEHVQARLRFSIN

CYP3A4 = CYP3A4 (Homo sapiens, UniProt P08684); test: CYP inhibition screen CYP3A4; assay type: in vitro ADME; conditions: for inhibition at 10 µM / inhibition at 30 µM: human
CYP3A4, sequence (P08684 whole entry): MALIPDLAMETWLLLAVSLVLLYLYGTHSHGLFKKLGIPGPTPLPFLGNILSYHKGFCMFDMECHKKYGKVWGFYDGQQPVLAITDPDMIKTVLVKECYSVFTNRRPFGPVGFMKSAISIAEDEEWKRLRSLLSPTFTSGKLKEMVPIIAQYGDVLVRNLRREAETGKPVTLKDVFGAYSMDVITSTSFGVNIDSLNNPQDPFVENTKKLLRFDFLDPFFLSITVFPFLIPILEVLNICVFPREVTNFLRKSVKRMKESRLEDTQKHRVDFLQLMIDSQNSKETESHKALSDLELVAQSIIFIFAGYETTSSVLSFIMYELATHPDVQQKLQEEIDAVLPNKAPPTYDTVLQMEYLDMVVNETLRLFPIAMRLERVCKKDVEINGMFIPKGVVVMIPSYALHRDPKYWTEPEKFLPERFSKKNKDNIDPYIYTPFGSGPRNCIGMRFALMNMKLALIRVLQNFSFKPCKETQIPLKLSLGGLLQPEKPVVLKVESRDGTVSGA

[1] = tested on: muscarinic acetylcholine receptors; test: Muscarinic receptor binding in panel; conditions: panel binding test
S9 stability, human = assay type: in vitro ADME

In the case of CN1[C@@H]2CC[C@H]1C[C@@H](OC(=O)c1c[nH]c3cc(F)ccc13)C2 [Compound C41, (1R,3R,5S)-8-methyl-8-azabicyclo[3.2.1]octan-3-yl 6-fluoro-1H-indole-3-carboxylate], the solubility (physchem) is reported as 80 mM (≈ 24.2 mg/mL), the solubility (physchem; water) is reported as 85 mM (≈ 25.7 mg/mL) and the Aβ40 (B254 mice) is reported as “trend for Aβ40 and 42 to decrease”. For the same molecule, the Aβ42 (B254 mice) was “trend for Aβ40 and 42 to decrease”, the novel location recognition (B254 mice) was “some improvement” and the novel object recognition (B254 mice) was “significant improvement”. The p-Tau/Tau ratio (B254 mice) was “significantly decreased”, the “Primary Screen (SH-SY5Y) sAPPα” value (sAPPα in SH-SY5Y cells) was “↑~20%” and the IC50 (CYP2C19) was over 30 µM. For the same molecule, the inhibition at 10 µM (CYP2C19; human) was 0%, the inhibition at 30 µM (CYP2C19; human) was 0% and the “binding to hERG receptor” value (hERG receptor) was “no binding”. The Kd (5-HT3) was about 0.003 µM, the “Target 5-HT3” value (5-HT3; target binding) was 5 nM and the IC50 (CYP1A2) was over 30 µM. It also gave an inhibition at 10 µM (CYP1A2; human) of 0.35%, an inhibition at 30 µM (CYP1A2; human) of 0.33% and an IC50 (CYP3A4) of over 30 µM. For the same molecule, the inhibition at 10 µM (CYP3A4; CYP3A4 midazolam inhibition) was 3.1%, the inhibition at 30 µM (CYP3A4; CYP3A4 midazolam inhibition) was 3.8% and the inhibition at 10 µM (CYP3A4; CYP3A4 testosterone inhibition) was 5.2%. For the same molecule, the inhibition at 30 µM (CYP3A4; CYP3A4 testosterone inhibition) was 2.5%, the “binding to muscarinic acetylcholine receptors” value [1] was “only weak binding; also recorded: profile. Some” and the “Metabolic Half-Life Human S9” value (S9 stability, human) was over 1 h. It also gave a half-life (S9 stability, human) of over 1 h.
